We go through four cell lines from the supplement of paper PMC10307832.

Experiment in all cases: relative viability (nuclei count vs DMSO), 5 days (fraction); higher = more cells survive
Compound in the experiment “Bicalutamide + Foretinib”: CC(O)(CS(=O)(=O)c1ccc(F)cc1)C(=O)Nc1ccc(C#N)c(C(F)(F)F)c1 [Bicalutamide] + COc1cc2c(Oc3ccc(NC(=O)C4(C(=O)Nc5ccc(F)cc5)CC4)cc3F)ccnc2cc1OCCCN1CCOCC1 [Foretinib] (partner 0.25 µM)
A digest of the protocol:
(§1)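 Lung cancer cell lines, seeded in 1536-well plates, were treated the following day by pin tool with a single drug or with five library-drug doses (not always all listed) in √10 steps on top of a fixed anchor-drug dose. Cells were fixed and nuclei stained in one step after 5 days, and nuclei were counted. Relative viability is the nuclei count for treated wells divided by that for vehicle wells, reported as medians of duplicate plates.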

Compound in the experiment “Bromopyruvate + AZD7762”: C(C(=O)C(=O)O)Br [Bromopyruvate] + NC(=O)Nc1cc(-c2cccc(F)c2)sc1C(=O)N[C@H]1CCCNC1 [AZD7762] (partner 0.2 µM)
Summed up:
as §1

Compound in the experiment “Bromopyruvate + Olaparib”: C(C(=O)C(=O)O)Br [Bromopyruvate] + O=C(c1cc(Cc2n[nH]c(=O)c3ccccc23)ccc1F)N1CCN(C(=O)C2CC2)CC1 [Olaparib] (partner 8 µM)
Summed up:
as §1

Compound in experiment [1]: CC(O)(CS(=O)(=O)c1ccc(F)cc1)C(=O)Nc1ccc(C#N)c(C(F)(F)F)c1 [Bicalutamide] + C[C@@H](Oc1cc(-c2cnn(C3CCNCC3)c2)cnc1N)c1c(Cl)ccc(F)c1Cl [Crizotinib] (partner 1 µM)
A digest of the protocol: as §1

Take NCI-H1734: the relative viability in the experiment with Bicalutamide + Foretinib (first compound 0.08 µM) was determined as 0.925; in the experiment with Bicalutamide + Foretinib (first compound 0.253 µM) it was 0.731; with Bicalutamide + Foretinib (first compound 0.8 µM), 1; with Bicalutamide + Foretinib (first compound 2.53 µM) it was 0.809; with Bromopyruvate + AZD7762 (first compound 1 µM), 0.536; with Bromopyruvate + AZD7762 (first compound 3.162 µM) it was 0.7. Further, the relative viability with Bromopyruvate + AZD7762 (first compound 10 µM) amounted to 0.694; with Bromopyruvate + AZD7762 (first compound 31.62 µM), 0.53; with Bromopyruvate + AZD7762 (first compound 100 µM), 0.544; in the experiment with Bromopyruvate + Olaparib (first compound 1 µM) it was 0.68; in the experiment with Bromopyruvate + Olaparib (first compound 3.162 µM), 0.585; in the experiment with Bromopyruvate + Olaparib (first compound 10 µM) it was 0.729. The relative viability with Bromopyruvate + Olaparib (first compound 31.62 µM) was 0.616; with Bromopyruvate + Olaparib (first compound 100 µM), 0.429; in experiment [1] (first compound 0.08 µM), 0.667; in experiment [1] (first compound 0.253 µM) it was 0.553; in experiment [1] (first compound 0.8 µM), 0.798; in experiment [1] (first compound 2.53 µM), 0.616.
Consider NCI-H1755, for which the relative viability in the experiment with Bicalutamide + Foretinib (first compound 0.08 µM) worked out at 0.895; with Bicalutamide + Foretinib (first compound 0.253 µM), 0.883; with Bicalutamide + Foretinib (first compound 0.8 µM), 0.96; in the experiment with Bicalutamide + Foretinib (first compound 2.53 µM) it was 0.853; in the experiment with Bromopyruvate + AZD7762 (first compound 1 µM), 0.432; with Bromopyruvate + AZD7762 (first compound 3.162 µM), 0.476. The relative viability was determined as 0.381 in the experiment with Bromopyruvate + AZD7762 (first compound 10 µM); 0.51 with Bromopyruvate + AZD7762 (first compound 31.62 µM); 0.473 with Bromopyruvate + AZD7762 (first compound 100 µM); 0.935 in the experiment with Bromopyruvate + Olaparib (first compound 1 µM); 0.865 with Bromopyruvate + Olaparib (first compound 3.162 µM); 0.854 with Bromopyruvate + Olaparib (first compound 10 µM). The relative viability with Bromopyruvate + Olaparib (first compound 31.62 µM) worked out at 0.924; in the experiment with Bromopyruvate + Olaparib (first compound 100 µM), 0.936; in experiment [1] (first compound 0.08 µM), 0.901; in experiment [1] (first compound 0.253 µM), 0.803; in experiment [1] (first compound 0.8 µM), 0.849; in experiment [1] (first compound 2.53 µM) it was 0.791.
In the case of NCI-H1915, the relative viability was determined as 0.753 with Bicalutamide + Foretinib (first compound 0.08 µM); 1.06 with Bicalutamide + Foretinib (first compound 0.253 µM); 1.11 in the experiment with Bicalutamide + Foretinib (first compound 0.8 µM); 1.13 with Bicalutamide + Foretinib (first compound 2.53 µM); 0.699 with Bromopyruvate + AZD7762 (first compound 1 µM); 0.681 with Bromopyruvate + AZD7762 (first compound 3.162 µM). Moreover, the relative viability in the experiment with Bromopyruvate + AZD7762 (first compound 10 µM) is 0.671; with Bromopyruvate + AZD7762 (first compound 31.62 µM), 0.661; with Bromopyruvate + AZD7762 (first compound 100 µM), 0.689; with Bromopyruvate + Olaparib (first compound 1 µM), 0.261; in the experiment with Bromopyruvate + Olaparib (first compound 3.162 µM) it was 0.267; with Bromopyruvate + Olaparib (first compound 10 µM), 0.242. The relative viability amounted to 0.254 with Bromopyruvate + Olaparib (first compound 31.62 µM); 0.22 with Bromopyruvate + Olaparib (first compound 100 µM); 0.873 in experiment [1] (first compound 0.08 µM); 0.815 in experiment [1] (first compound 0.253 µM); 0.969 in experiment [1] (first compound 0.8 µM); 0.889 in experiment [1] (first compound 2.53 µM).
In the case of NCI-H1944, the relative viability in the experiment with Bicalutamide + Foretinib (first compound 0.08 µM) came out at 0.837; in the experiment with Bicalutamide + Foretinib (first compound 0.253 µM), 0.749; with Bicalutamide + Foretinib (first compound 0.8 µM), 0.981; in the experiment with Bicalutamide + Foretinib (first compound 2.53 µM) it was 0.775; in the experiment with Bromopyruvate + AZD7762 (first compound 1 µM) it was 0.579; with Bromopyruvate + AZD7762 (first compound 3.162 µM) it was 0.521. The relative viability with Bromopyruvate + AZD7762 (first compound 10 µM) amounted to 0.576; in the experiment with Bromopyruvate + AZD7762 (first compound 31.62 µM), 0.514; with Bromopyruvate + AZD7762 (first compound 100 µM) it was 0.54; with Bromopyruvate + Olaparib (first compound 1 µM), 0.395; with Bromopyruvate + Olaparib (first compound 3.162 µM) it was 0.432; with Bromopyruvate + Olaparib (first compound 10 µM), 0.429. For the same cell line, the relative viability with Bromopyruvate + Olaparib (first compound 31.62 µM) amounted to 0.419; with Bromopyruvate + Olaparib (first compound 100 µM), 0.402; in experiment [1] (first compound 0.08 µM), 1.07; in experiment [1] (first compound 0.253 µM) it was 0.982; in experiment [1] (first compound 0.8 µM), 1.28; in experiment [1] (first compound 2.53 µM), 1.12.
